{
  "source": "patent US20260284078A1",
  "about": "“IMMUNOS[…] AND METHODS THEREOF” (priority 2023, published 2026)",
  "key": {"[1]": {"assay": "Example 5 peripheral drug exposures in blood and plasma", "format": "in vivo, cynomolgus macaques", "conditions": "oral once per day (Dex 0.5 mg/kg, Tac 1 mg/kg, Pred 3 mg/kg); day 21, 4 hours post-dosing", "excerpt": "FIG. 9. Exemplary peripheral drug exposures in blood and plasma. […] The X axis of the graph denotes immunosuppression agent (dexamethasone, tacrolimus, or prednisolone); the Y axis of the graph depicts ng/ml of the immunosuppression agent as detected in blood for dexamethasone and prednisolone or in plasma for tacrolimus. Each circle represents data collected from one animal."}, "[2]": {"test_system": "cynomolgus macaques", "assay": "Example 5 liver enzymes and total bilirubin in blood (Table 2)", "conditions": "rAAV 5×10^13 vg/kg IV plus regimen", "source_text": "Blood samples were collected from animals on days-7, 4, 8, 15, and 22 (wherein 0=day of rAAV administration) and subsequently analyzed for levels of certain liver enzymes and total bilirubin. […] (D) Level of total bilirubin (TBIL) was quantified. The X axis depicts day of study (wherein 0=day of rAAV administration); the Y axis depicts milligrams (mg) per deciliter (dL) of total bilirubin. Each graphed line corresponds to data collected from one animal. Legend at right identifies treatment group.\nReduction in liver toxicity upon treatment with rAAV by tested immunosuppression regimens was investigated through measurement of levels of liver enzymes and analysis of liver lesions at necropsy."}, "[3]": {"test_system": "cynomolgus macaques", "assay": "Example 5 histopathological lesions in examined animals (Table 1)", "format": "in vivo", "conditions": "rAAV 5×10^13 vg/kg IV + regimen, day 22 necropsy", "excerpt": "FIGS. 10A-10C. […] Columns represent average value for each treatment group. […] Treatment group is denoted at left. […] Magnification is indicated at top. […] Treatment groups of animals are indicated at top."}},
  "data": [
    {"smiles": "C[C@@H]1C[C@H]2[C@@H]3CCC4=CC(=O)C=C[C@]4(C)[C@@]3(F)[C@@H](O)C[C@]2(C)[C@@]1(O)C(=O)CO", "note": "[Dex, dexamethasone]", "values": [
      {"measurement": "peripheral drug exposure", "setting": "[1]", "result": "achieved targeted ranges of peripheral drug exposure"}
    ]},
    {"smiles": "C[C@]12C=CC(=O)C=C1CC[C@@H]1[C@@H]2[C@@H](O)C[C@@]2(C)[C@H]1CC[C@]2(O)C(=O)CO", "note": "[Pred, prednisolone]", "values": [
      {"measurement": "peripheral drug exposure", "setting": "[1]", "result": "achieved targeted ranges of peripheral drug exposure"},
      {"measurement": "total bilirubin levels", "setting": "[2]", "result": "notable increases"},
      {"measurement": "Dorsal root ganglia, cervical: Infiltrate, mononuclear cell (animals affected, total)", "setting": "[3]; 3 examined per group", "result": "(0)"},
      {"measurement": "Dorsal root ganglia, cervical: Infiltrate, mononuclear cell, Minimal (animals)", "setting": "[3]; 3 examined per group", "result": 0},
      {"measurement": "Dorsal root ganglia, lumbar: Degeneration/necrosis, neuron (animals affected, total)", "setting": "[3]; 3 examined per group", "result": "(3)"},
      {"measurement": "Dorsal root ganglia, lumbar: Degeneration/necrosis, neuron, Minimal (animals)", "setting": "[3]; 3 examined per group", "result": 3},
      {"measurement": "Dorsal root ganglia, lumbar: Infiltrate, mononuclear cell (animals affected, total)", "setting": "[3]; 3 examined per group", "result": "(3)"},
      {"measurement": "Dorsal root ganglia, lumbar: Infiltrate, mononuclear cell, Minimal (animals)", "setting": "[3]; 3 examined per group", "result": 3},
      {"measurement": "Dorsal root ganglia, sacral: Degeneration/necrosis, neuron (animals affected, total)", "setting": "[3]; 3 examined per group", "result": "(1)"},
      {"measurement": "Dorsal root ganglia, sacral: Degeneration/necrosis, neuron, Minimal (animals)", "setting": "[3]; 3 examined per group", "result": 1},
      {"measurement": "Dorsal root ganglia, sacral: Infiltrate, mononuclear cell (animals affected, total)", "setting": "[3]; 3 examined per group", "result": "(1)"},
      {"measurement": "Dorsal root ganglia, sacral: Infiltrate, mononuclear cell, Mild (animals)", "setting": "[3]; 3 examined per group", "result": 1},
      {"measurement": "Dorsal root ganglia, sacral: Infiltrate, mononuclear cell, Minimal (animals)", "setting": "[3]; 3 examined per group", "result": 0},
      {"measurement": "Dorsal root ganglia, thoracic: Degeneration/necrosis, neuron (animals affected, total)", "setting": "[3]; 3 examined per group", "result": "(1)"},
      {"measurement": "Dorsal root ganglia, thoracic: Degeneration/necrosis, neuron, Minimal (animals)", "setting": "[3]; 3 examined per group", "result": 1},
      {"measurement": "Dorsal root ganglia, thoracic: Infiltrate, mononuclear cell (animals affected, total)", "setting": "[3]; 3 examined per group", "result": "(2)"},
      {"measurement": "Dorsal root ganglia, thoracic: Infiltrate, mononuclear cell, Minimal (animals)", "setting": "[3]; 3 examined per group", "result": 2},
      {"measurement": "Heart: Degeneration, myocardium (animals affected, total)", "setting": "[3]; 3 examined per group", "result": "(1)"},
      {"measurement": "Heart: Degeneration, myocardium, Minimal (animals)", "setting": "[3]; 3 examined per group", "result": 1},
      {"measurement": "Heart: Infiltrate, mononuclear cell, adipose (animals affected, total)", "setting": "[3]; 3 examined per group", "result": "(3)"},
      {"measurement": "Heart: Infiltrate, mononuclear cell, adipose, Minimal (animals)", "setting": "[3]; 3 examined per group", "result": 3},
      {"measurement": "Heart: Infiltrate, mononuclear cell, myocardium (animals affected, total)", "setting": "[3]; 3 examined per group", "result": "(2)"},
      {"measurement": "Heart: Infiltrate, mononuclear cell, myocardium, Mild (animals)", "setting": "[3]; 3 examined per group", "result": 1},
      {"measurement": "Heart: Infiltrate, mononuclear cell, myocardium, Minimal (animals)", "setting": "[3]; 3 examined per group", "result": 1},
      {"measurement": "Sciatic nerve: Degeneration, nerve fiber (animals affected, total)", "setting": "[3]; 3 examined per group", "result": "(1)"},
      {"measurement": "Sciatic nerve: Degeneration, nerve fiber, Minimal (animals)", "setting": "[3]; 3 examined per group", "result": 1},
      {"measurement": "Trigeminal ganglion: Degeneration/necrosis, neuron (animals affected, total)", "setting": "[3]; 3 examined per group", "result": "(2)"},
      {"measurement": "Trigeminal ganglion: Degeneration/necrosis, neuron, Minimal (animals)", "setting": "[3]; 3 examined per group", "result": 2},
      {"measurement": "Trigeminal ganglion: Infiltrate, mononuclear cell (animals affected, total)", "setting": "[3]; 3 examined per group", "result": "(2)"},
      {"measurement": "Trigeminal ganglion: Infiltrate, mononuclear cell, Minimal (animals)", "setting": "[3]; 3 examined per group", "result": 2},
      {"measurement": "Sympathetic ganglia, thoracic: Infiltrate, mononuclear cell (animals affected, total)", "setting": "[3]; examined: Dex/Tac 1, Pred 3", "result": "(2)"},
      {"measurement": "Sympathetic ganglia, thoracic: Infiltrate, mononuclear cell, Minimal (animals)", "setting": "[3]; examined: Dex/Tac 1, Pred 3", "result": 2},
      {"measurement": "Sympathetic ganglia, cervical: Infiltrate, mononuclear cell (animals affected, total)", "setting": "[3]; examined: Dex/Tac 3, Pred 2", "result": "(1)"},
      {"measurement": "Sympathetic ganglia, cervical: Infiltrate, mononuclear cell, Minimal (animals)", "setting": "[3]; examined: Dex/Tac 3, Pred 2", "result": 1}
    ]},
    {"smiles": "C=CC[C@@H]1/C=C(\\C)C[C@H](C)C[C@H](OC)[C@H]2O[C@@](O)(C(=O)C(=O)N3CCCC[C@H]3C(=O)O[C@H](/C(C)=C/[C@@H]3CC[C@@H](O)[C@H](OC)C3)[C@H](C)[C@@H](O)CC1=O)[C@H](C)C[C@@H]2OC", "note": "[Tac, tacrolimus]", "values": [
      {"measurement": "peripheral drug exposure", "setting": "[1]", "result": "achieved targeted ranges of peripheral drug exposure"}
    ]}
  ]
}
